Assays:
BDNF [1] = assay: Pharmacological Test 8: influence on TrkB inhibition (BDNF expression, semi-quantitative RT-PCR); type: cell-based, human; details: SH-SY5Y cells; test substance 10 mNU/mL 24 hours; K252a 500 nM or αTrkB 20 μg/mL added 30 minutes before completion; FIG. 9
Description: K252a (tyrosine kinase inhibitor, 500 nM) or rabbit IgG of human TrkB-specific antibody (αTrkB, 20 μg/mL) was added to the cultured product 30 minutes before completion of the cultivation. After that, the same as in the above Pharmacological Test 1, the extracted total RNA was subjected to a semi-quantitative RT-PCR, the PCR product was separated by agarose electrophoresis and the bands of BDNF and cyclophilin A were visually detected.

ERK1/2 = assay: Inhibition of phosphorylation of ERK1/2 by MEK1/2 inhibitor; type: cell-based
BDNF [2] = assay: Pharmacological Test 6: influence of intracellular signaling inhibitors on BDNF expression; type: cell-based, human; details: SH-SY5Y cells; test substance 10 mNU/mL 24 hours; PD98059 10 μM, LY 294002 15 μM or SB 203580 0.5 μM added 30 minutes before completion; FIG. 7
Description: PD98059 (MEK inhibitor, 10 μM), LY 294002 (PI-3K inhibitor, 15 μM) or SB 203580 (p38 MAPK inhibitor, 0.5 μM) dissolved in a medium was added to a cultured product 30 minutes before completion of the cultivation. After that, the same as in the above Pharmacological Test 1, the extracted total RNA was subjected to a semi-quantitative RT-PCT, the PCR product was separated by agarose gel electrophoresis and the bands of BDNF and cyclophilin were visually detected.

CREB [3] = assay: Inhibition of phosphorylation of CREB by p38MAPK inhibitor; type: cell-based
[4] = tested on: p42/44MAP kinase (ERK1/2); assay: Pharmacological Test 5: effect to CREB pathway (immuno-blotting), phosphorylated P42/44 MAP kinase; type: cell-based; details: SH-SY5Y cells; BDNF given from outside of the cells (human recombinant BDNF 50 pg/mL; 10 or 30 minutes)
Description: (§1) Intracellular signaling molecules were detected by an immuno-blotting method using each of various specific antibodies produced to CREB (MAB 5432; Millipore), phosphorylated CREB (P-CREB: Clone 10E9; Millipore), P42/44 MAP kinase (ERK1/2; Cell Signaling Technology), phosphorylated P42/44 MAP kinase (P-MAPK: Tyr202/Tyr204; Cell Signaling Technology) and c-Fos (Gene Tex). […] After that, the cells were scraped off using a cell scraper (BD Bioscience), immediately washed with ice-cooled PBS and subjected to cytolysis according to a method of Mutoh, et al. (Proceedings of the National Academy of Sciences of the United States of America, vol. 92, pages 5087 to 5091, 1995). The cytolyzed product was subjected to an SDS-PAGE electrophoresis of 4 to 20% gel (ePAGEL; Atto Chemicals) and blotted to a PDVF (polyvinylidene fluoride) membrane. After said membrane was subjected to a blocking for 1 hour using Tris buffer physiological saline (TBS; 20 mM Tris-HCl, pH 7.5, 0.15M NaCl) containing 3% fat-free milk and 0.1% Tween 20 (TBS-T), a reaction with the primary antibody and the HRP-labeled secondary antibody was conducted in TBS-T for one hour at room temperature. Immuno-reactive bands of CREB, phosphorylated CREB, P42/44 MAP kinase, phosphorylated P42/44 MAP kinase and c-Fos were visually detected by a detection system by means of […] (ECL; GE Healthcare).

CREB [5] = assay: Pharmacological Test 5: effect to CREB pathway (immuno-blotting), phosphorylated CREB; type: cell-based; details: SH-SY5Y cells; BDNF given from outside of the cells (human recombinant BDNF 50 pg/mL; 10 or 30 minutes)
Description: as §1

Q: How did the “BDNF expression enhanced by the test substance in presence of inhibitor or antibody” value (BDNF [1]) turn out when `COC(=O)[C@@]1(O)C[C@H]2O[C@]1(C)n1c3ccccc3c3c4c(c5c6ccccc6n2c5c31)C(=O)NC4` [Example K252a] was run?
A: almost completely suppressed

Q: `COc1cccc(-c2cc(=O)c3ccccc3o2)c1N` [PD98059] was tested. Which “phosphorylation of ERK1/2” value (ERK1/2) did it give?
A: inhibited

Q: What about the “enhancement of BDNF expression by the test substance in presence of inhibitor” value (BDNF [2]) of the same molecule?
A: suppressed

Q: Which results are given for `C[S+]([O-])c1ccc(-c2nc(-c3ccncc3)c(-c3ccc(F)cc3)[nH]2)cc1` (stereo not shown) [SB203580]?
A: phosphorylation of CREB (CREB [3]): inhibited; enhancement of BDNF expression by the test substance in presence of inhibitor (BDNF [2]): suppressed

B1: BDNF: human recombinant BDNF (Peprotech) given from outside of the cells (protein, UniProt P23560 19-247, looked up)
Neurotrophic factor BDNF …: APMKEANIRGQGGLAYPGVRTHGTLESVNGPKAGSRGLTSLADTFEHVIEELLDEDQKVRPNEENNKDADLYTSRVMLSSQVPLEPPLLFLLEEYKNYLDAANMSMRVRRHSDPARRGELSVCDSISEWVTAADKKTAVDMSGGTVTVLEKVPVSKGQLKQYFYETKCNPMGYTKEGCRGIDKRHWNSQCRTTQSYVRALTMDSKKRIGWRFIRIDTSCVCTLTIKRGR
Q: How did the “phosphorylation of 42/44MAP kinase” value [4] turn out when B1 was run?
A: enhanced

Q: And the “phosphorylation of CREB” value (CREB [5])?
A: enhanced

— patent US9447466B2 (NIPPON ZOKI PHARMACEUTICAL CO., LTD., priority 2010, dated 2016)
